Test system: cats with chronic kidney disease (CKD)
Assay: Exploratory clinical field trial in cats with CKD (Example 3)
Type: in vivo, cat
Design: key to IRIS Stage (based on serum creatinine level) / IRIS Stage (based on creatinine level) / IRIS Stage (based on the creatinine level): IRIS CKD stage assigned from serum creatinine (IRIS 2019)
Details: for Phosphorus: ref 0.8-2.2; for Serum creatinine: ref 0.9-2.3; for Potassium: ref 3.3-5.8; for UPC: ref <0.33
Description: The clinical trial was conducted at three animal clinics. Overall, 9 cats with chronic kidney disease (CKD) were included in the study and treated once daily orally with 1 mg/kg bodyweight velagliflozin for up to 150 days (depending on the time of enrollment).
Diagnosis of CKD was based on two measurements of serum creatinine concentration at least 2 weeks apart from each other (historical value and screening, and value at screening in fasted cats), as recommended by the International Renal Interest Society (IRIS 2019). In order to qualify for enrollment, serum creatinine levels needed to be ≥2.2 mg/dL, but <5.0 mg/dL.
Disease staging throughout the study was performed based on serum creatinine levels in accordance with the IRIS CKD staging (IRIS 2019).
All other cats were treated for >90 days had at least data for two time points under treatment available and were therefore evaluated. Progression of the disease, as well as IRIS staging in this study was based on the most reliable biomarker: serum creatinine.

[1] = case 200-001, 1 mg/kg po once daily
[2] = case 200-001, 1 mg/kg po once daily, whole study
[3] = case 200-001, Visit 1 (Day 30), 1 mg/kg po once daily
[4] = case 200-001, Visit 2 (Day 90), 1 mg/kg po once daily
[5] = case 200-001, Visit 3 (Day 111), 1 mg/kg po once daily
[6] = case 200-001, screening visit (before treatment)
[7] = case 200-003 (IRIS stage 3), removed early on day 30
[8] = case 200-004, 1 mg/kg po once daily, whole study
[9] = case 200-004, Visit 1 (Day 30), 1 mg/kg po once daily
[10] = case 200-004, Visit 2 (Day 90), 1 mg/kg po once daily
[11] = case 200-004, Visit 3 (Day 143), 1 mg/kg po once daily
[12] = case 200-004, screening visit (before treatment)
[13] = case 200-005, 1 mg/kg po once daily
[14] = case 200-005, 1 mg/kg po once daily, whole study
[15] = case 200-005, Visit 1 (Day 30), 1 mg/kg po once daily
[16] = case 200-005, Visit 2 (Day 90), 1 mg/kg po once daily
[17] = case 200-005, Visit 3 (Day 128), 1 mg/kg po once daily
[18] = case 200-005, screening visit (before treatment)
[19] = case 200-006, 1 mg/kg po once daily
[20] = case 200-006, 1 mg/kg po once daily, whole study
[21] = case 200-006, Visit 1 (Day 30), 1 mg/kg po once daily
[22] = case 200-006, Visit 2 (Day 90), 1 mg/kg po once daily

SMILES: N#Cc1ccc([C@@H]2O[C@H](CO)[C@@H](O)[C@H](O)[C@H]2O)cc1Cc1ccc(C2CC2)cc1 [velagliflozin, Velagliflozin]
- decrease in serum creatinine within the observation period (3 of the seven evaluated cats, 1 mg/kg po once daily): ≥ 10%
- renal parameters and clinical signs (IRIS stage 2 and 3 CKD cats, 1 mg/kg orally once daily): stabilized or even improved
- expected glucosuric effect (all cats except cat 200-004 (no data recorded)): confirmed
- Hematocrit (all cats under oral treatment with 1 mg/kg bodyweight): remained within the reference range
- Systolic blood pressure (all cats, during the course of the study): < 160 mmHg
- serum phosphate levels (all evaluated cases, except one measurement for case 200-001 on day 90): remained within the laboratories reference range throughout the study
- Proteinuria (UPC) (all patients, 1 mg/kg po once daily): ≤ 0.33
- Serum potassium levels (all treated cats, 1 mg/kg po once daily): stayed within the reference range
- adverse events [1]: Two adverse events were reported for this patient: pectin responsive diarrhea for one day and pancreatitis
- expected glucosuric effect [1]: confirmed
- Quality of life according to the owner (course) [2]: remained very good
- Serum potassium levels (course) [2]: decreased within the reference range
- UPC (course) [2]: improved from 0.4 to 0.2
- appetite and drinking behavior (course) [2]: remained normal
- condition (clinical signs and biochemical parameters) [2]: stabilization of the condition
- course of BUN [2]: remained stable
- course of serum creatinine [2]: remained stable with one single measurement on Day 90 being increased
- total urine protein [2]: reduced
- BUN [3]: 38 mg/dL
- IRIS Stage (based on the creatinine level) [3]: 2
- Owner assessment - quality of life [3]: very good
- Owner assessment of the appetite [3]: normal
- Owner assessment of the drinking behavior [3]: normal
- Systolic blood pressure [3]: 126.7 mmHg
- Phosphorus [3]: 1.3 mmol/L
- Serum creatinine [3]: 2.6 mg/dL
- Potassium [3]: 4.6 mmol/L
- Hematocrit (case 200-001, Visit 1 (Day 30), 1 mg/kg po once daily, ref 28.2-52.7): 38.5%
- BUN [4]: 47 mg/dL
- IRIS Stage (based on the creatinine level) [4]: 3
- Owner assessment - quality of life [4]: very good
- Owner assessment of the appetite [4]: normal
- Owner assessment of the drinking behavior [4]: normal
- Systolic blood pressure [4]: 122.7 mmHg
- Phosphorus [4]: 2.4 mmol/L
- Serum creatinine [4]: 3.2 mg/dL
- Potassium [4]: 4.3 mmol/L
- Hematocrit (case 200-001, Visit 2 (Day 90), 1 mg/kg po once daily, ref 28.2-52.7): 34.6%
- UPC [4]: 0.2
- BUN [5]: 41 mg/dL
- IRIS Stage (based on the creatinine level) [5]: 2
- Owner assessment - quality of life [5]: very good
- Owner assessment of the appetite [5]: normal
- Owner assessment of the drinking behavior [5]: normal
- Systolic blood pressure [5]: 131.3 mmHg
- Phosphorus [5]: 1.6 mmol/L
- Serum creatinine [5]: 2.6 mg/dL
- Potassium [5]: 4.3 mmol/L
- Hematocrit (case 200-001, Visit 3 (Day 111), 1 mg/kg po once daily, ref 28.2-52.7): 32.6%
- BUN [6]: 39 mg/dL
- IRIS Stage (based on the creatinine level) [6]: 2
- Owner assessment - quality of life [6]: very good
- Owner assessment of the appetite [6]: normal
- Owner assessment of the drinking behavior [6]: normal
- Systolic blood pressure [6]: 152.0 mmHg
- Phosphorus [6]: 1.4 mmol/L
- Serum creatinine [6]: 2.6 mg/dL
- Potassium [6]: 5.2 mmol/L
- Hematocrit (case 200-001, screening visit (before treatment), ref 28.2-52.7): 37.4%
- UPC [6]: 0.4
- appetite and drinking behavior [7]: improving to normal
- laboratory parameters [7]: worsening of a single measurement of laboratory parameters
- quality of life [7]: good quality of life
- adverse events (case 200-004, 1 mg/kg po once daily): No adverse event was reported
- Quality of life according to the owner (course) [8]: remained very good
- appetite and drinking behavior (course) [8]: remained normal
- change of IRIS stage of the disease [8]: from 3 to 2
- condition (biochemical parameters) [8]: improvement of the condition
- course of serum creatinine [8]: decreased by a clinically relevant amount
- BUN [9]: 42 mg/dL
- IRIS Stage (based on serum creatinine level) [9]: 2
- Owner assessment - quality of life [9]: very good
- Owner assessment of the appetite [9]: normal
- Owner assessment of the drinking behavior [9]: normal
- Systolic blood pressure [9]: 148.0 mmHg
- Phosphorus [9]: 1.3 mmol/L
- Serum creatinine [9]: 2.7 mg/dL
- Potassium [9]: 4.5 mmol/L
- Hematocrit (case 200-004, Visit 1 (Day 30), 1 mg/kg po once daily, ref 28.2-52.7): 37.0%
- BUN [10]: 36 mg/dL
- IRIS Stage (based on serum creatinine level) [10]: 2
- Owner assessment - quality of life [10]: very good
- Owner assessment of the appetite [10]: normal
- Owner assessment of the drinking behavior [10]: normal
- Systolic blood pressure [10]: 129.3 mmHg
- Phosphorus [10]: 1.3 mmol/L
- Serum creatinine [10]: 2.5 mg/dL
- Potassium [10]: 4.9 mmol/L
- Hematocrit (case 200-004, Visit 2 (Day 90), 1 mg/kg po once daily, ref 28.2-52.7): 32.9%
- BUN [11]: 38 mg/dL
- IRIS Stage (based on serum creatinine level) [11]: 2
- Owner assessment - quality of life [11]: very good
- Owner assessment of the appetite [11]: normal
- Owner assessment of the drinking behavior [11]: normal
- Systolic blood pressure [11]: 148.7 mmHg
- Phosphorus [11]: 1.2 mmol/L
- Serum creatinine [11]: 2.6 mg/dL
- Potassium [11]: 4.9 mmol/L
- Hematocrit (case 200-004, Visit 3 (Day 143), 1 mg/kg po once daily, ref 28.2-52.7): 34.8%
- BUN [12]: 46 mg/dL
- IRIS Stage (based on serum creatinine level) [12]: 3
- Owner assessment - quality of life [12]: very good
- Owner assessment of the appetite [12]: normal
- Owner assessment of the drinking behavior [12]: normal
- Systolic blood pressure [12]: 130.7 mmHg
- Phosphorus [12]: 1.2 mmol/L
- Serum creatinine [12]: 2.9 mg/dL
- Potassium [12]: 4.9 mmol/L
- Hematocrit (case 200-004, screening visit (before treatment), ref 28.2-52.7): 33.4%
- UPC [12]: 0.1
- Quality of life according to the owner [13]: good
- adverse events [13]: No adverse event was reported
- expected glucosuric effect [13]: confirmed
- Serum potassium levels (course) [14]: remained stable
- UPC ratio (remained at) [14]: 0.1
- appetite and drinking behavior (course) [14]: remained normal
- condition (clinical signs and biochemical parameters) [14]: stabilization of the condition
- course of BUN [14]: remained stable
- course of serum creatinine [14]: decreased
- total urine protein [14]: reduced
- BUN [15]: 37 mg/dL
- IRIS Stage (based on the creatinine level) [15]: 2
- Owner assessment - quality of life [15]: very good
- Owner assessment of the appetite [15]: normal
- Owner assessment of the drinking behavior [15]: normal
- Systolic blood pressure [15]: 148.0 mmHg
- Phosphorus [15]: 1.0 mmol/L
- Serum creatinine [15]: 2.0 mg/dL
- Potassium [15]: 4.0 mmol/L
- Hematocrit (case 200-005, Visit 1 (Day 30), 1 mg/kg po once daily, ref 28.2-52.7): 45.1%
- BUN [16]: 32 mg/dL
- IRIS Stage (based on the creatinine level) [16]: 2
- Owner assessment - quality of life [16]: good
- Owner assessment of the appetite [16]: normal
- Owner assessment of the drinking behavior [16]: normal
- Systolic blood pressure [16]: 130.0 mmHg
- Phosphorus [16]: 1.3 mmol/L
- Serum creatinine [16]: 1.9 mg/dL
- Potassium [16]: 3.9 mmol/L
- Hematocrit (case 200-005, Visit 2 (Day 90), 1 mg/kg po once daily, ref 28.2-52.7): 39.2%
- UPC [16]: 0.1
- BUN [17]: 37 mg/dL
- IRIS Stage (based on the creatinine level) [17]: 2
- Owner assessment - quality of life [17]: good
- Owner assessment of the appetite [17]: normal
- Owner assessment of the drinking behavior [17]: normal
- Systolic blood pressure [17]: 123.3 mmHg
- Phosphorus [17]: 1.1 mmol/L
- Serum creatinine [17]: 1.9 mg/dL
- Potassium [17]: 4.0 mmol/L
- Hematocrit (case 200-005, Visit 3 (Day 128), 1 mg/kg po once daily, ref 28.2-52.7): 40.4%
- BUN [18]: 37 mg/dL
- IRIS Stage (based on the creatinine level) [18]: 2
- Owner assessment - quality of life [18]: very good
- Owner assessment of the appetite [18]: normal
- Owner assessment of the drinking behavior [18]: normal
- Systolic blood pressure [18]: 139.3 mmHg
- Serum creatinine [18]: 2.2 mg/dL
- Potassium [18]: 4.9 mmol/L
- Hematocrit (case 200-005, screening visit (before treatment), ref 28.2-52.7): 42.3%
- UPC [18]: 0.1
- adverse events [19]: Three adverse events were reported: diarrhoea, vomitus as well as cystitis
- expected glucosuric effect [19]: confirmed
- Quality of life according to the owner (course) [20]: remained good
- Serum creatinine and BUN (course) [20]: remained stable
- Serum potassium levels (course) [20]: remained within the reference range
- Total urine protein and UPC [20]: remained within the reference range
- appetite (course) [20]: improved to normal
- condition (clinical signs and biochemical parameters) [20]: stable condition
- drinking behavior (course) (case 200-006, 1 mg/kg po once daily, whole study, worsening potentially due to cystitis): improved to normal but worsened again to excessive
- BUN [21]: 41 mg/dL
- IRIS Stage (based on the creatinine level) [21]: 2
- Owner assessment - quality of life [21]: good
- Owner assessment of the appetite [21]: normal
- Owner assessment of the drinking behavior [21]: normal
- Systolic blood pressure [21]: 139.3 mmHg
- Phosphorus [21]: 1.9 mmol/L
- Serum creatinine [21]: 2.7 mg/dL
- Potassium [21]: 3.9 mmol/L
- Hematocrit (case 200-006, Visit 1 (Day 30), 1 mg/kg po once daily, ref 28.2-52.7): 38.1%
- BUN [22]: 30 mg/dL
- IRIS Stage (based on the creatinine level) [22]: 2
- Owner assessment - quality of life [22]: good
- Owner assessment of the appetite [22]: normal
- Owner assessment of the drinking behavior [22]: excessive

— patent publication US20240307426A1, “USE OF SGLT-2 INHIBITORS FOR THE PREVENTION AND/OR TREATMENT OF RENAL DISEASES IN NON-HUMAN MAMMALS” (BOEHRINGER INGELHEIM VETMEDICA GMBH, priority 2021, published 2024)
